Data set [1] is described as follows: Aqueous stability in simulated gastric fluid. Type of data set: physicochemical. Conditions: 37 °C.
The subject of the next data set is Caco-2 cells. Particulars: cited from earlier work.
Data set [2] in a line: Plasma stability, rat plasma. Type of data set: in vitro ADME. Conditions: female, Sprague-Dawley, pooled plasma.
The nature of data set [3]: Plasma stability, mouse plasma. Particulars: female, CD-1, mouse, pooled plasma. Type of data set: in vitro ADME.
The nature of data set [4]: Plasma stability, human plasma. Particulars: female, pooled plasma. Type of data set: in vitro ADME.
The conditions of data set [5]: in vivo, cited from earlier work.

Results on three molecules are retold here after paper PMC4769951 (Bioorganic & medicinal chemistry, 2016).

One may read the share remaining as the share of the starting amount still present when the sample was taken. Low readings indicate a greater loss, high ones greater stability.

With `CCCCCCCCCCCC(=O)O[C@H]1[C@@H](F)[C@H](n2cnc3c(N)ncnc32)O[C@@H]1CNS(=O)(=O)NC(=O)c1ccccc1O.CCN(CC)CC` [Compound 8, 9-[2,5-Dideoxy-3-O-(dodecanoyl)-2-fluoro-5-{N-(N-2-hydroxybenzoyl)sulfamoyl}amino-β-D-ribofuranosyl]adenine Triethylammonium Salt], the “Chemical hydrolysis to release the parent drug 2” value in data set [1] (pH 1.2, 2 h) is “not observed”.

Consider `CC(=O)O[C@H]1[C@@H](F)[C@H](n2cnc3c(N)ncnc32)O[C@@H]1CNS(=O)(=O)NC(=O)c1ccccc1O.CCN(CC)CC` [Compound 3, 9-[3-O-(Acetyl)-2,5-dideoxy-2-fluoro-5-{N-(N-2-hydroxybenzoyl)sulfamoyl}amino-β-D-ribofuranosyl]adenine Triethylammonium Salt], for which the “% hydrolyzed to parent drug 2” value in data set [1] (pH 7.4, 2 h) was 8%.

For `Nc1ncnc2c1ncn2[C@@H]1O[C@H](CNS(=O)(=O)NC(=O)c2ccccc2O)[C@@H](O)[C@H]1F` [Compound 2], in the data set on Caco-2 cells, the “Caco-2 permeability relative to 1” value was 3.5 fold, the Efflux ratio was 0.3, the “Papp AP-BL” value was 4.2 ×10⁻⁶ cm/s and the “Papp BL-AP” value was 1.3 ×10⁻⁶ cm/s. The amount remaining at 6 h, 200 µM in data set [2] turned out to be 100%. The molecule further gave a fraction remaining at 6 h, 200 µM in data set [3] of 100%. For the same molecule, in data set [4], the share remaining at 6 h, 200 µM was 100%. Besides, the “Oral exposure relative to 1” value in data set [5] (po) was 3 fold. Besides, the “Clearance relative to 1” value in data set [5] is 3 fold.
